# Results published in ChEMBL document CHEMBL3988442, “University of Dundee, Small-Polar-MMV Screening Library” (2021).
# Where “and” joins values, the source holds several entries; their conditions need not be identical. Identical values can stand only once.
# Assays:
# [1] = test system: Schistosoma mansoni; test: High throughput screening of compounds against Schistosoma mansoni motility; type: functional; design: dose or concentration left out as unconfirmed
# [2] = molecular target: Chromo domain-containing protein 1 (Saccharomyces cerevisiae (strain ATCC 204508 / S288c) (Baker's yeast), UniProt P32657); test: ScCHD-1 Enzyme Inhibition Assay; type: functional
# [3] = microbe, parasite or virus in culture; conditions: Mycobacterium tuberculosis, 72 h, read-out: pIC50 (converted)
# [4] = test system: Wolbachia pipientis; test: Anti-Wolbachia Cell-Based Screen; type: functional
# [5] = microbe, parasite or virus in culture; conditions: Mycobacterium tuberculosis, 96 h, read-out: pIC50 (converted)
# [6] = test system: Plasmodium falciparum; test: Calibr Malaria Delayed Death Assay SOP; type: functional, organism-based
# [7] = molecular target: Tryptophan--tRNA ligase (Mycobacterium tuberculosis (strain ATCC 25618 / H37Rv), UniProt P9WFT3); test: Biochemical assay for Mt-TrpRS; type: functional
# [8] = molecular target: ClpP1P2 (Mycobacterium tuberculosis (strain ATCC 25618 / H37Rv), UniProt P9WPC3+P9WPC5); test: in vitro assay to detect presence of AMC directly proportional to the activity of ClpP1P2. GHDDI collaboration.; type: functional
SMILES,IC50 [2],further results
CC(=O)NCCc1ccc(S(=O)(=O)N(CC(C)C)C(C)C)s1,> 29.5 µM,Percent Effect [1]: 41.16%
CCCN(CC(=O)NC)C(=O)c1ccc(-c2ccsc2)nc1C,> 29.5 µM,Percent Effect [1]: -8.65%
O=C(NCC(O)c1ccccc1Cl)c1cccc(-n2cnnn2)c1 (stereo unspecified),> 29.5 µM,Percent Effect [1]: -46.05%
Cc1cnc(CNc2c(F)cccc2-n2cccn2)o1,> 29.5 µM,Percent Effect [1]: -41.52%
COc1ccc(C[C@H]2CN(c3nnc(C)s3)CC[C@@H]2OC)cc1.O=C(O)C(F)(F)F,> 29.5 µM,IC50 [3]: > 50.1 µM; pIC50 [4]: 5.531; IC50 ([4]; Wolbachia pipientis): 3.58 µM; IC50 [5]: 24.7 µM
OCC1CCCCN1c1ccc(-c2nc(-c3ccccc3F)no2)cn1 (stereo unspecified),> 29.5 µM,pIC50 [6]: 7.272 and 6.795
O=C(CN1CCc2ccccc21)Nc1ccc(OC(F)F)cc1,> 29.5 µM,IC50 [7]: > 195 µM; Percent Effect [1]: 42%
Cc1cc(CN(C)C(=O)NC(C)c2nncn2C)no1 (stereo unspecified),> 29.5 µM,Percent Effect [1]: 0.6145%
O=C(Nc1cccc(CN2CCOC2=O)c1)N1CCSCC1,> 29.5 µM,Percent Effect [1]: -6.059%
Cc1cc(NC(=O)NCCc2ccsc2)n(C)n1,> 29.5 µM,IC50 [7]: > 195 µM; Percent Effect [1]: 10.29%
O=C(NC1CC1)[C@H]1CC[C@@H]2[C@@H](CCN2c2ncc(F)cn2)O1,> 29.5 µM,
CCN(CC)CCNC(=O)c1cc(C(C)C)nc(N2CCCC2)n1,> 29.5 µM,
FC(F)(F)COCCN1CCCC(c2noc(C3CC3)n2)C1 (stereo unspecified),> 29.5 µM,
CC(=O)N(Cc1noc(C)n1)C1CCN(Cc2ccon2)C1 (stereo unspecified),> 29.5 µM,
Cc1cccc(C(=O)N2C[C@@H](OCc3cccnc3)[C@H]3OCCC[C@@H]32)n1,> 29.5 µM,
c1cn(Cc2nnc(C3CCN(c4nccs4)CC3)n2C2CC2)cn1,> 29.5 µM,
CNC(=O)C1CCC(NC(=O)N(C)Cc2c(C)noc2C)CC1 (stereo unspecified),> 29.5 µM,
CSCc1nc(C(C)(C)NC(=O)OC(C)(C)C)no1,> 29.5 µM,
CC(NC(=O)c1cc(Br)c2c(c1)OCCO2)C(N)=O (stereo unspecified),> 29.5 µM,
COc1c(CNC2CCc3c(Cl)cccc32)c(C)nn1C (stereo unspecified),> 29.5 µM,
CC(C)CN1C[C@H]2CCN(c3ncccn3)CC[C@H]2S1(=O)=O,> 29.5 µM,
CN(C)Cc1nnc(C2CCN(C(=O)CCc3cccs3)CC2)n1C,> 29.5 µM,
Cn1ccnc1CN1CCC2(CC1)CN(CC1CC1)C(=O)CO2,> 29.5 µM,
CSCCC(=O)N1CCCC1c1ccsc1 (stereo unspecified),> 29.5 µM,IC50 [7]: > 195 µM; Percent Effect [1]: -17.9%

SMILES,IC50 [2],further results
CCc1cnc(CN(C)C2CCN(CCc3ccccn3)C2)o1 (stereo unspecified),> 29.5 µM,Percent Effect [1]: -35.57%
COCCN1CCN(CCCS(C)(=O)=O)CC1C (stereo unspecified),> 29.5 µM,
O=C(Cn1cc(-c2ccccc2)ncc1=O)Nc1ccncc1,> 29.5 µM,IC50 [8]: > 100 µM
O=C(COc1coc(CN2CCCCCC2)cc1=O)c1ccccc1,> 29.5 µM,
CC(C)c1nc(C2CCCN2Cc2ccccc2C#N)no1 (stereo unspecified),> 29.5 µM,
COc1ccc(CNC(=O)C2(C#N)CCCC2)cc1,> 29.5 µM,IC50 [7]: > 195 µM; Percent Effect [1]: -106.9%
N#Cc1cn(CC(=O)NC2CC2)c2ccc(Br)cc2c1=O,> 29.5 µM,
CCS(=O)(=O)Nc1ccn(Cc2cccc(Cl)c2)n1,> 29.5 µM,
COc1ccc(C(=O)C2CCCN(CCCn3cccn3)C2)c(OC)c1 (stereo unspecified),> 29.5 µM,
O=C(COCc1nc(-c2ccncc2)no1)N1CCCCCC1,> 29.5 µM,
Cc1ccc(-c2nc(CNC3CCc4ncnn4C3)co2)c(C)c1 (stereo unspecified),> 29.5 µM,
Nc1ncc2c(n1)CN(C1CCCC1)C2=O,> 29.5 µM,IC50 [3]: 16.8 µM; IC50 [5]: 20.4 µM
Cc1ccccc1CC(C)NCc1c(C)nn(C)c1N1CCOCC1.Cl (stereo unspecified),> 29.5 µM,Percent Effect [1]: 7.535%
Cc1nn(C)c(C)c1NC(=O)CCn1ncc2c(C)cccc21,> 29.5 µM,
CN(C)C(C)(C)CNC(=O)C(C)(C)c1ccccc1F,> 29.5 µM,Percent Effect [1]: -62.05%
Cc1noc([C@@H]2CCCN2C(=O)C2CCN(C(=O)C3CCC3)CC2)n1,> 29.5 µM,Percent Effect [1]: 8.394%
O=C(c1ccnnc1)N1C[C@@H](OCC2CCOCC2)[C@H]2OCCC[C@H]21,> 29.5 µM,
Cc1cc(NC(=O)Cn2cc(C#N)c(=O)c3cc(Br)ccc32)no1,> 29.5 µM and 25.6 µM,
CCOc1ncccc1NC(=O)c1cc2c(s1)CCC2,> 29.5 µM,Percent Effect [1]: -62.61%
NCC1(c2cccc(C(F)(F)F)c2)CCOCC1,> 29.5 µM,
Cc1ccc(C(=O)N2CCn3cc(CN(C)Cc4ccco4)nc3C2)o1,> 29.5 µM,
COc1cccc2c1OCC(C(=O)NC1CCN(S(C)(=O)=O)CC1)C2 (stereo unspecified),> 29.5 µM,
Cn1ccc(NC(=O)Cc2cccc(F)c2)n1,> 29.5 µM,
COc1ccccc1CN(C)C(=O)c1cc(CN2CCC(O)CC2)on1,> 29.5 µM,Percent Effect [1]: -57.63%

SMILES,IC50 [2],further results
CCc1c(C)nn(CCNC(=O)C2CCCN(C(=O)N(C)C)C2)c1C (stereo unspecified),> 29.5 µM,
CCc1ccc(-n2c(=O)[nH]c3nc(N4CCSCC4)ncc3c2=O)cc1,> 29.5 µM,
CSCC(CCO)NC(=O)Nc1cc(Br)ccc1C (stereo unspecified),> 29.5 µM,Percent Effect [1]: -20.66%
COc1ccc(C(=O)C2CCCN(Cc3ccncc3)C2)c(OC)c1 (stereo unspecified),> 29.5 µM,
COc1ccc(CC(=O)N(C)Cc2nnc3ccccn23)cc1,> 29.5 µM,
COCCC(=O)N1CCc2cc(Cl)cc(Cl)c2C1,> 29.5 µM,
CNS(=O)(=O)c1cccc(CNC(=O)c2c(C)oc(C)c2C)c1,> 29.5 µM,
O=C(Cn1c(=O)n(Cc2ccco2)c2ncccc21)NC1CCCCC1,> 29.5 µM,
Cc1nc(N2CCN(C)CC2)ncc1C(=O)N1CC(C)(C)C(C)(O)C1 (stereo unspecified),> 29.5 µM,
NC(=O)C1CCN(C(=O)c2cccc(CN3CCOCC3)c2)CC1,> 29.5 µM,Percent Effect [1]: 38.13%
COC(=O)c1ccc2ccn(CC3CCCO3)c(=O)c2c1 (stereo unspecified),> 29.5 µM,Percent Effect [1]: -62.88%
c1cnn(Cc2nnc(C3CCN(C4CCOCC4)CC3)n2C2CC2)c1,> 29.5 µM,
Cc1nc(N)sc1C(=O)N1CCCC(c2nccn2CCCN(C)C)C1 (stereo unspecified),> 29.5 µM,
COc1ccc(NC(=O)CCC2CCCN(Cc3ncon3)C2)cc1Cl (stereo unspecified),> 29.5 µM,
COCCNC(=O)C(C)n1cc(Br)cn1 (stereo unspecified),> 29.5 µM,
O=C(NCc1ccco1)[C@H]1C[C@H]2OCC[C@H]2N(C(=O)c2ccco2)C1,> 29.5 µM,
CC(c1cccnc1)N(C)Cc1csc(-c2ccccn2)n1 (stereo unspecified),> 29.5 µM,Percent Effect [1]: -97.18%
COCCn1ccc(NC(=O)Nc2ccc(C(N)=O)c(F)c2)n1,> 29.5 µM,
COc1ccc(C2=C(C)C(N3CCc4ccccc4C3)=NS2(=O)=O)cc1,27.1 µM and 24 µM,
O=C1NCc2ccc(NC(=O)C3CCCN3c3nccs3)cc21 (stereo unspecified),> 29.5 µM,
CS(=O)(=O)NCc1cc2n(n1)CCCN(Cc1cccc(C#N)c1)C2,> 29.5 µM,
CCNC(=O)N(C)Cc1ccc(SC)c(OC)c1,> 29.5 µM,
CC(C)NC(=O)c1nnn(-c2cccc(C(F)(F)F)c2)c1C1CC1,> 29.5 µM,Percent Effect [1]: -32.68%
COc1ncccc1C(=O)Nc1nc2c(s1)CN(S(=O)(=O)C1CC1)CC2,> 29.5 µM,Percent Effect [1]: -71.23%

SMILES,IC50 [2],further results
COc1ccc(C)cc1S(=O)(=O)NCC(c1cccn1C)N(C)C (stereo unspecified),> 29.5 µM,Percent Effect [1]: -44.63%
COC(=O)N1CCc2ccc(NC(=O)c3cn(C)nn3)cc2C1,> 29.5 µM,
CN(C)C(CNC(=O)c1cc2c([nH]c1=O)CCCC2=O)c1ccsc1 (stereo unspecified),> 29.5 µM,
Cc1cccc(CN2CC[C@@H]3[C@@H]2CCN3C(=O)c2ccno2)n1,> 29.5 µM,
CCn1ncnc1C1CC(=O)NCc2nc3ccccn3c21 (stereo unspecified),> 29.5 µM,
Cc1cccc(CN2C[C@@H]3COC[C@]3(CNC(=O)c3ccsc3)C2)n1,> 29.5 µM,
Cc1cnn(CC2CCCN2CC(=O)N(C)CCC#N)c1 (stereo unspecified),> 29.5 µM,
Cc1cnn(C2CN(CC(O)c3ccc(F)cc3)C2)c1 (stereo unspecified),> 29.5 µM,
CCCN1CCCn2nc(CNS(=O)(=O)c3cccc(C#N)c3)cc2C1,> 29.5 µM,
O=C(Cn1cc(-c2ccccc2)ncc1=O)Nc1nnc[nH]1,> 29.5 µM,IC50 [8]: > 100 µM
CSc1ccccc1CN1CCCn2nc(CNC(=O)N(C)C)cc2C1,> 29.5 µM,Percent Effect [1]: -17.72%
CCOCCN1CCN(Cc2cccc(C(=O)N(C)C)c2)CC1,> 29.5 µM,
CCn1ccnc1CN1CCC(CCC(=O)Nc2ccccc2Cl)CC1,> 29.5 µM,
Cc1cccc(CN2CCC3(CCCN(C(=O)c4ccsc4)C3)C2=O)n1 (stereo unspecified),> 29.5 µM,
CC(CNC(=O)c1ccc(Cl)cc1I)N1CCCC1 (stereo unspecified),> 29.5 µM,
O=C(NS(=O)(=O)c1ccccc1Cl)c1cccc2c1OCCO2,> 29.5 µM,Percent Effect [1]: -35.61%
O=C(O)c1nnn(-c2ccc(OC(F)(F)F)cc2)c1-c1ccncc1,> 29.5 µM,
CN1CCN(c2ncc3c(=O)n(-c4cccc(F)c4)c(=O)[nH]c3n2)CC1,> 29.5 µM,
Cn1cnc2c1C(COCC1CC1)CN(C(=O)Cc1ccsc1)C2 (stereo unspecified),> 29.5 µM,
CN(Cc1cccc(F)c1)C(=O)CN1CCCC1CCc1ccccc1 (stereo unspecified),> 29.5 µM,
CC(NC(=O)CCCOc1ccccc1Cl)c1ccncc1 (stereo unspecified),> 29.5 µM,Percent Effect [1]: -74.47%
CCn1ccnc1-c1nc2cc(S(=O)(=O)N3CCCC3)ccc2n1C,> 29.5 µM,Percent Effect [1]: -59.51%
Cc1cccc(NC(=O)Cn2ncc(SCC(N)=O)c(Cl)c2=O)c1C,> 29.5 µM,Percent Effect [1]: 40.97%
